Assay results from ChEMBL document CHEMBL3991601, “The target landscape of clinical kinase drugs” (Science, 2017).
Calls of active or inactive are those of the source.

Tests used:
[1] = molecular target: Bone morphogenetic protein receptor type-1A (Homo sapiens, UniProt P36894)
[2] = molecular target: T1, Serine/threonine-protein kinase TAO1 (Homo sapiens, UniProt Q7L7X3)
T1 sequence (Q7L7X3 whole entry): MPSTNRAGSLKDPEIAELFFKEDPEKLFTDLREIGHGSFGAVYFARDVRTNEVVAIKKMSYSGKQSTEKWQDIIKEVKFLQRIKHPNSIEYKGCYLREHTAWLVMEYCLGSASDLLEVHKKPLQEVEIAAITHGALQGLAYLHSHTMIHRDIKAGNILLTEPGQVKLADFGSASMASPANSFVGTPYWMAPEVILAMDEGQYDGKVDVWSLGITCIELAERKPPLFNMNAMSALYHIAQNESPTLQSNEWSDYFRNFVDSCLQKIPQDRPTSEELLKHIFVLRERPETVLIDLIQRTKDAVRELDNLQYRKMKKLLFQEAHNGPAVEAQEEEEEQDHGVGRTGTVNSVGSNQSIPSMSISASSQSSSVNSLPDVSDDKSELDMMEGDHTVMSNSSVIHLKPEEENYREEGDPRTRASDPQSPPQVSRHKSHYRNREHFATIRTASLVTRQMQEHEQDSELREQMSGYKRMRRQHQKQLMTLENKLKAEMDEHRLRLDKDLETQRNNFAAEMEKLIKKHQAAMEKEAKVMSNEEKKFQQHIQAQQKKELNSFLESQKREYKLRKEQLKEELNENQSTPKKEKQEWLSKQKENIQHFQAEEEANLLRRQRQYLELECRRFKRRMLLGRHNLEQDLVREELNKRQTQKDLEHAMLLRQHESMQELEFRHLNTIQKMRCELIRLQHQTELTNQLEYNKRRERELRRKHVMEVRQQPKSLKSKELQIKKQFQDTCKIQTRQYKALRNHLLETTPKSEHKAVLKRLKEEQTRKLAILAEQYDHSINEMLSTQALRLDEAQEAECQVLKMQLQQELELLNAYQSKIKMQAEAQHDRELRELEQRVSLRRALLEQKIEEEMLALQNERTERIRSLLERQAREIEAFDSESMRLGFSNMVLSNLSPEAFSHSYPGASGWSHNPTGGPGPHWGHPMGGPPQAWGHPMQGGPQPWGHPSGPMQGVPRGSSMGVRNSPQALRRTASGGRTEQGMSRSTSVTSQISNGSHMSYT

[3] = molecular target: T2, Serine/threonine-protein kinase TBK1 (Homo sapiens, UniProt Q9UHD2)
T2 sequence (Q9UHD2 whole entry): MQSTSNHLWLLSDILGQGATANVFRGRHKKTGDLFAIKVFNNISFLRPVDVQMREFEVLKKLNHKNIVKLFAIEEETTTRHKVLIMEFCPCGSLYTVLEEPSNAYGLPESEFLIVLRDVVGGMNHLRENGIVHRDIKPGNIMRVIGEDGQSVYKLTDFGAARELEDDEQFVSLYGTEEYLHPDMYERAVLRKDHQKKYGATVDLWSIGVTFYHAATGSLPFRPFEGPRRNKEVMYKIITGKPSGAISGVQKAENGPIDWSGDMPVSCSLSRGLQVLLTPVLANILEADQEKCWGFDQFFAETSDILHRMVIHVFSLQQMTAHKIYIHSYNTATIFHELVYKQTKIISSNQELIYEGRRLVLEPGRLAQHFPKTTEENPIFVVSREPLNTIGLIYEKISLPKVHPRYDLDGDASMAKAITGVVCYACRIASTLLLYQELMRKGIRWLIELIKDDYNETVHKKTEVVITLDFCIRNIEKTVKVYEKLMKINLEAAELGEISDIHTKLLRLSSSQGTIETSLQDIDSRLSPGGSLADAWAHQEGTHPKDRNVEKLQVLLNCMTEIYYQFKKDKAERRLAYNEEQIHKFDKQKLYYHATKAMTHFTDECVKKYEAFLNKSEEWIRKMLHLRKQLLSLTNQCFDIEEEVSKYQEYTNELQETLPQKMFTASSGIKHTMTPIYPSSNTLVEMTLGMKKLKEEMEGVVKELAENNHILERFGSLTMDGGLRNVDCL

[4] = molecular target: Adenylate kinase 2, mitochondrial (Homo sapiens, UniProt P54819)
Midasin = Midasin (Homo sapiens, UniProt Q9NU22)
[5] = molecular target: T3, EKC/KEOPS complex subunit TP53RK (Homo sapiens, UniProt Q96S44)
T3 sequence (Q96S44 whole entry): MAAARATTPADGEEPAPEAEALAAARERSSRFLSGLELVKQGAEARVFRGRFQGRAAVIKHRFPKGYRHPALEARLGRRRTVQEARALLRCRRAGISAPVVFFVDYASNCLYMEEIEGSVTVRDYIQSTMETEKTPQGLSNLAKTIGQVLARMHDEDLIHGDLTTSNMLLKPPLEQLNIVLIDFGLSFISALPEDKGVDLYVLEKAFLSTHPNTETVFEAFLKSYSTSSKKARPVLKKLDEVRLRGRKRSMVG

[6] = molecular target: T4, Peroxisomal acyl-coenzyme A oxidase 1 (Homo sapiens, UniProt Q15067)
T4 sequence (Q15067 whole entry): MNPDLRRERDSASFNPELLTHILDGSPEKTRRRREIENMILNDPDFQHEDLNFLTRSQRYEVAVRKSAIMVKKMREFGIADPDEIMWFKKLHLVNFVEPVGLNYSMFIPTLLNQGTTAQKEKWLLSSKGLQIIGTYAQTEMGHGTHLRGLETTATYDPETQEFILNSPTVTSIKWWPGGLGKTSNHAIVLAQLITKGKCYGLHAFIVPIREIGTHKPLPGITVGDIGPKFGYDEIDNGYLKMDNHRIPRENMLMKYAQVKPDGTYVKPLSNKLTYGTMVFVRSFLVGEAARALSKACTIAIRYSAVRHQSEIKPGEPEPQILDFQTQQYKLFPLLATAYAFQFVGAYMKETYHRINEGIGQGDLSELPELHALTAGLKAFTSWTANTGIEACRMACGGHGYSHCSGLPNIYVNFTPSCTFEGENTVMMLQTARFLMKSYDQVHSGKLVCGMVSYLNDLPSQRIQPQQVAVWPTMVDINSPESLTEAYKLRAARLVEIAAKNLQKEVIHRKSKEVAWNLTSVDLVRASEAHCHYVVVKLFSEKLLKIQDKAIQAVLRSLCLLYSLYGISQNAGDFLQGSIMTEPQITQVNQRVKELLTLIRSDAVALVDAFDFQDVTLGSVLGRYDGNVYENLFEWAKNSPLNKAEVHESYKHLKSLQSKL
Note: in the data inactive means no Kd found up to 30 µM.

Bone morphogenetic protein receptor type-1A, sequence (P36894 whole entry): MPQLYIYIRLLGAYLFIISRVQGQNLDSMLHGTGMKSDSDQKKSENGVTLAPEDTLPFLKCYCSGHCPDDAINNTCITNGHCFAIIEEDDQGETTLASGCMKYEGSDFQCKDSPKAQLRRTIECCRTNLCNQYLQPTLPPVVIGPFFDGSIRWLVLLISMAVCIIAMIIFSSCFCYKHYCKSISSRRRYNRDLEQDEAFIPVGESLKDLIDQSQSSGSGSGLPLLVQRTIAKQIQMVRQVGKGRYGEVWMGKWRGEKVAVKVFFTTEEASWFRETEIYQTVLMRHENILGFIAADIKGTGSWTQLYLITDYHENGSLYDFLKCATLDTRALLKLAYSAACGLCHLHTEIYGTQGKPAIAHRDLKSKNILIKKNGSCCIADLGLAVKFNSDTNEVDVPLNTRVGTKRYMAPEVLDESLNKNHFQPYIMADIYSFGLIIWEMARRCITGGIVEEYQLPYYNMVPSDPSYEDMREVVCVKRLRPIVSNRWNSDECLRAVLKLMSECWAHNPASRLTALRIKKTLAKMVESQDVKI

SMILES	Kd [1]	Kd [2]	Kd [3]	Kd [4]	Kd (Midasin)	Kd [5]	Kd [6]
CNC(=O)c1cc(Oc2ccc(NC(=O)Nc3ccc(Cl)c(C(F)(F)F)c3)c(F)c2)ccn1 [REGORAFENIB]	> 30 µM (inactive)	> 30 µM (inactive)	> 30 µM (inactive)	> 30 µM (inactive)	> 30 µM (inactive)	> 30 µM (inactive)	> 30 µM (inactive)
O=C(Nc1ccc(-c2ccnc(Nc3ccc(N4CCOCC4)cc3)n2)cc1)C1CCCN1 (stereo unspecified) [XL-019]	> 30 µM (inactive)	> 30 µM (inactive)	0.561 µM (active)	> 30 µM (inactive)	> 30 µM (inactive)	> 30 µM (inactive)	> 30 µM (inactive)
Cc1ccc(S(=O)(=O)Nc2nc3ccccc3nc2Nc2ccc3nsnc3c2)cc1	> 30 µM (inactive)	> 30 µM (inactive)	> 30 µM (inactive)	> 30 µM (inactive)	> 30 µM (inactive)	> 30 µM (inactive)	> 30 µM (inactive)
C=CC(=O)N1CCC(Oc2cc3c(Nc4ccc(Cl)c(Cl)c4F)ncnc3cc2OC)CC1 [POZIOTINIB]	> 30 µM (inactive)	> 30 µM (inactive)	> 30 µM (inactive)	> 30 µM (inactive)	> 30 µM (inactive)	> 30 µM (inactive)	> 30 µM (inactive)
CCN1CCN(Cc2ccc(-c3cc4c(N[C@H](C)c5ccccc5)ncnc4[nH]3)cc2)CC1 [AEE-788]	> 30 µM (inactive)	> 30 µM (inactive)	> 30 µM (inactive)	> 30 µM (inactive)	> 30 µM (inactive)	> 30 µM (inactive)	> 30 µM (inactive)
CN1CC[C@@H](c2c(O)cc(O)c3c(=O)cc(-c4ccccc4Cl)oc23)[C@@H]1CO	> 30 µM (inactive)	> 30 µM (inactive)	> 30 µM (inactive)	> 30 µM (inactive)	> 30 µM (inactive)	> 30 µM (inactive)	> 30 µM (inactive)
CN1CCC(CNc2ccc3ncc(-c4cccc(OC(F)(F)F)c4)n3n2)CC1 [SGI-1776]	> 30 µM (inactive)	> 30 µM (inactive)	> 30 µM (inactive)	> 30 µM (inactive)	> 30 µM (inactive)	> 30 µM (inactive)	> 30 µM (inactive)
O=c1sn(-c2cccc3ccccc23)c(=O)n1Cc1ccccc1 [TIDEGLUSIB]	> 30 µM (inactive)	> 30 µM (inactive)	> 30 µM (inactive)	> 30 µM (inactive)	> 30 µM (inactive)	> 30 µM (inactive)	> 30 µM (inactive)
CN(C)C(=O)c1cc2cnc(Nc3ccc(N4CCNCC4)cn3)nc2n1C1CCCC1 [RIBOCICLIB]	> 30 µM (inactive)	> 30 µM (inactive)	> 30 µM (inactive)	> 30 µM (inactive)	> 30 µM (inactive)	> 30 µM (inactive)	> 30 µM (inactive)
CC[C@H](Nc1ncnc2[nH]cnc12)c1nc2cccc(F)c2c(=O)n1-c1ccccc1 [IDELALISIB]	> 30 µM (inactive)	> 30 µM (inactive)	> 30 µM (inactive)	> 30 µM (inactive)	> 30 µM (inactive)	> 30 µM (inactive)	> 30 µM (inactive)
COC(=O)N[C@@H](C)CNc1nccc(-c2cn(C(C)C)nc2-c2cc(Cl)cc(NS(C)(=O)=O)c2F)n1 [ENCORAFENIB]	> 30 µM (inactive)	> 30 µM (inactive)	> 30 µM (inactive)	> 30 µM (inactive)	> 30 µM (inactive)	> 30 µM (inactive)	> 30 µM (inactive)
C1=C/COCc2cc(ccc2OCCN2CCCC2)Nc2nccc(n2)-c2cccc(c2)COC/1 [PACRITINIB]	> 30 µM (inactive)	2.19 µM (active)	49.6 µM (active)	> 30 µM (inactive)	> 30 µM (inactive)	> 30 µM (inactive)	> 30 µM (inactive)

Now from value to molecule:

Kd [1]	Kd [2]	Kd [3]	Kd [4]	Kd (Midasin)	Kd [5]	Kd [6]	SMILES
> 30 µM (inactive)	> 30 µM (inactive)	> 30 µM (inactive)	> 30 µM (inactive)	> 30 µM (inactive)	> 30 µM (inactive)	> 30 µM (inactive)	CNS(=O)(=O)Nc1nccc(Cc2c(C)c3ccc(Oc4ncccn4)cc3oc2=O)c1F [AVUTOMETINIB]
> 30 µM (inactive)	> 30 µM (inactive)	> 30 µM (inactive)	> 30 µM (inactive)	> 30 µM (inactive)	> 30 µM (inactive)	> 30 µM (inactive)	CCCS(=O)(=O)Nc1ccc(F)c(C(=O)c2c[nH]c3ncc(-c4ccc(Cl)cc4)cc23)c1F [VEMURAFENIB]
> 30 µM (inactive)	> 30 µM (inactive)	> 30 µM (inactive)	> 30 µM (inactive)	> 30 µM (inactive)	> 30 µM (inactive)	> 30 µM (inactive)	Cc1cc2c(F)c(Oc3ncnn4cc(OC[C@@H](C)OC(=O)[C@H](C)N)c(C)c34)ccc2[nH]1 [BRIVANIB ALANINATE]
> 30 µM (inactive)	> 30 µM (inactive)	> 30 µM (inactive)	> 30 µM (inactive)	> 30 µM (inactive)	> 30 µM (inactive)	> 30 µM (inactive)	COc1cc(N2CCC(N3CCN(C)CC3)CC2)ccc1Nc1ncnc(Nc2ccccc2S(=O)(=O)C(C)C)n1 [ASP-3026]
> 30 µM (inactive)	> 30 µM (inactive)	> 30 µM (inactive)	> 30 µM (inactive)	> 30 µM (inactive)	> 30 µM (inactive)	> 30 µM (inactive)	CC(=O)Nc1cccc(-n2c(=O)n(C3CC3)c(=O)c3c(Nc4ccc(I)cc4F)n(C)c(=O)c(C)c32)c1 [TRAMETINIB]
> 30 µM (inactive)	> 30 µM (inactive)	> 30 µM (inactive)	> 30 µM (inactive)	> 30 µM (inactive)	> 30 µM (inactive)	> 30 µM (inactive)	C[C@@H](c1ccc2nccn2c1)n1nnc2ncc(-c3cnn(C)c3)nc21 [SAVOLITINIB]
